# Results: patent publication US20250002507A1, “7,8-DIHYDRO-5H-1,6-NAPHTHYRIDINE DERIVATIVES AS POSITIVE ALLOSTERIC MODULATORS OF THE MUSCARINIC ACETYLCHOLINE RECEPTOR M4 FOR TREATING NEUROLOGICAL AND PSYCHIATRIC DISORDERS” (Vanderbilt University, priority 2021, published 2025)
# Biological target: T1, Human M4 (Homo sapiens, UniProt P08173)
# T1 construct: expressed in transfected cells
# T1 sequence (P08173 1-479): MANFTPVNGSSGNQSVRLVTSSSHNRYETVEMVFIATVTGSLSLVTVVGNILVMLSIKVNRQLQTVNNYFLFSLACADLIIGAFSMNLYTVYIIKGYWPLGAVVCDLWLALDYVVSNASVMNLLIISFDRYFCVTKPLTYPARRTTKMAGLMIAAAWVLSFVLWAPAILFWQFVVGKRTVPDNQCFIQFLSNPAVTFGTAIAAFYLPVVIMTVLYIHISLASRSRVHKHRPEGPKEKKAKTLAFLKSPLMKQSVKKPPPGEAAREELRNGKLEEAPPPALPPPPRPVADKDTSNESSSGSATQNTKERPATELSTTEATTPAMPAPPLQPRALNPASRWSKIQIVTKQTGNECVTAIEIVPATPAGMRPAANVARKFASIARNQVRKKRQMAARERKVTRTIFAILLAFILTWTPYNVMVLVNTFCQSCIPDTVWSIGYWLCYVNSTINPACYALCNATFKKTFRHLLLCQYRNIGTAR
# Assay: mAChR M4 cell-based functional assay (calcium flux, potentiation of EC20 acetylcholine response), hM4-Gqi5 CHO-K1 cells
# Conditions: Table 3; for Emax at 30 µM: CHO-K1, Human M4, % ACh maximum at 30 μM, read-out: Emax (% ACh maximum at 30 μM); for EC50: potentiation of EC20 acetylcholine response, calcium flux, CHO-K1 cells, read-out: Human M4 EC50
# Outline: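 Positive allosteric modulation was scored as a concentration-dependent rise in the response to an EC20 dose of acetylcholine, added 144 s after the compound. Human M4-Gqi5 CHO-K1 cells carried Fluo-4 dye, and compounds ran as 11-point, 3-fold dilution series. EC50 and Emax came from four-parameter logistic fits of the FDSS fluorescence-ratio traces.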
Compound,Emax at 30 µM [%],EC50 [nM]
"Cc1c(N2CCc3ncc(-n4ccc5ccccc54)cc3C2)nn2c(C(F)(F)F)nnc2c1C [Compound 248, 6-(7,8-dimethyl-3-(trifluoromethyl)-[1,2,4]triazolo[4,3-b]pyridazin-6-yl)-3-(1H-indol-1-yl)-5,6,7,8-tetrahydro-1,6-naphthyridine]",58,2310
"Cc1c(N2CCc3ncc(-c4ccc(N5CC[C@@H](F)C5)nc4)cc3C2)nn2c(C(F)(F)F)nnc2c1C [Compound 249, (R)-6-(7,8-dimethyl-3-(trifluoromethyl)-[1,2,4]triazolo[4,3-b]pyridazin-6-yl)-3-(6-(3-fluoropyrrolidin-1-yl)pyridin-3-yl)-5,6,7,8-tetrahydro-1,6-naphthyridine]",65,1210
"Cc1c(N2CCc3ncc(-c4ccc(N5CC[C@H](F)C5)nc4)cc3C2)nn2c(C(F)(F)F)nnc2c1C [Compound 250, (S)-6-(7,8-dimethyl-3-(trifluoromethyl)-[1,2,4]triazolo[4,3-b]pyridazin-6-yl)-3-(6-(3-fluoropyrrolidin-1-yl)pyridin-3-yl)-5,6,7,8-tetrahydro-1,6-naphthyridine]",60,1250
"Cc1ccc(-c2cnc3c(c2)CN(c2nn4c(C(F)(F)F)nnc4c(C)c2C)CC3)cn1 [Compound 256, 6-(7,8-dimethyl-3-(trifluoromethyl)-[1,2,4]triazolo[4,3-b]pyridazin-6-yl)-3-(6-methylpyridin-3-yl)-5,6,7,8-tetrahydro-1,6-naphthyridine]",78,250
"Cc1c(N2CCc3ncc(-c4cccnc4)cc3C2)nn2c(C(F)(F)F)nnc2c1C [Compound 257, 6-(7,8-dimethyl-3-(trifluoromethyl)-[1,2,4]triazolo[4,3-b]pyridazin-6-yl)-3-(pyridin-3-yl)-5,6,7,8-tetrahydro-1,6-naphthyridine]",78,218
"COc1ccc(-c2cnc3c(c2)CN(c2nn4c(C(F)(F)F)nnc4c(C)c2C)CC3)cn1 [Compound 258, 6-(7,8-dimethyl-3-(trifluoromethyl)-[1,2,4]triazolo[4,3-b]pyridazin-6-yl)-3-(6-methoxypyridin-3-yl)-5,6,7,8-tetrahydro-1,6-naphthyridine]",77,578
"Cc1c(N2CCc3ncc(-c4ccc(C(F)(F)F)nc4)cc3C2)nn2c(C(F)(F)F)nnc2c1C [Compound 259, 6-(7,8-dimethyl-3-(trifluoromethyl)-[1,2,4]triazolo[4,3-b]pyridazin-6-yl)-3-(6-(trifluoromethyl)pyridin-3-yl)-5,6,7,8-tetrahydro-1,6-naphthyridine]",55,1450
"Cc1c(N2CCc3ncc(OCC4COCCO4)cc3C2)nn2cnnc2c1C (stereo not shown) [Compound 260, 3-((1,4-dioxan-2-yl)methoxy)-6-(7,8-dimethyl-[1,2,4]triazolo[4,3-b]pyridazin-6-yl)-5,6,7,8-tetrahydro-1,6-naphthyridine]",84,7670
"Cc1c(N2CCc3ncc(OCC4CC4)cc3C2)nn2cnnc2c1C [Compound 261, 3-(cyclopropylmethoxy)-6-(7,8-dimethyl-[1,2,4]triazolo[4,3-b]pyridazin-6-yl)-5,6,7,8-tetrahydro-1,6-naphthyridine]",90,331
"Cc1c(N2CCc3ncc(OCC4COC4)cc3C2)nn2cnnc2c1C [Compound 262, 6-(7,8-dimethyl-[1,2,4]triazolo[4,3-b]pyridazin-6-yl)-3-(oxetan-3-ylmethoxy)-5,6,7,8-tetrahydro-1,6-naphthyridine]",82,1580
"Cc1c(N2CCc3ncc(OCC4CC(F)(F)C4)cc3C2)nn2cnnc2c1C [Compound 263, 3-((3,3-difluorocyclobutyl)methoxy)-6-(7,8-dimethyl-[1,2,4]triazolo[4,3-b]pyridazin-6-yl)-5,6,7,8-tetrahydro-1,6-naphthyridine]",79,502
"Cc1c(N2CCc3ncc(OCC4CCOC4)cc3C2)nn2cnnc2c1C (stereo not shown) [Compound 264, 6-(7,8-dimethyl-[1,2,4]triazolo[4,3-b]pyridazin-6-yl)-3-((tetrahydrofuran-3-yl)methoxy)-5,6,7,8-tetrahydro-1,6-naphthyridine]",82,1220
"Cc1c(N2CCc3ncc(OCc4ccccc4)cc3C2)nn2cnnc2c1C [Compound 265, 3-(benzyloxy)-6-(7,8-dimethyl-[1,2,4]triazolo[4,3-b]pyridazin-6-yl)-5,6,7,8-tetrahydro-1,6-naphthyridine]",74,724
"Cc1c(N2CCc3ncc(OCC4CC4(F)F)cc3C2)nn2cnnc2c1C (stereo not shown) [Compound 266, 3-((2,2-difluorocyclopropyl)methoxy)-6-(7,8-dimethyl-[1,2,4]triazolo[4,3-b]pyridazin-6-yl)-5,6,7,8-tetrahydro-1,6-naphthyridine]",93,346
"Cc1c(N2Cc3cc(C(F)(F)F)cnc3C(C)(C)C2)nn2cnnc2c1C [Compound 269, 6-(7,8-Dimethyl-[1,2,4]triazolo[4,3-b]pyridazin-6-yl)-8,8-dimethyl-3-(trifluoromethyl)-5,6,7,8-tetrahydro-1,6-naphthyridine]",42,1670
"COc1nnc2c(C)c(C)c(N3CCc4ncc(C(F)(F)F)cc4C3)nn12 [Compound 270, 6-(3-Methoxy-7,8-dimethyl-[1,2,4]triazolo[4,3-b]pyridazin-6-yl)-3-(trifluoromethyl)-7,8-dihydro-5H-1,6-naphthyridine]",97,168

# Next, values leading:
Emax at 30 µM [%],EC50 [nM],Compound
74,308,"Cc1c(N2CCc3ncc(-n4cccn4)cc3C2)nn2c(C(F)(F)F)nnc2c1C [Compound 247, 6-(7,8-dimethyl-3-(trifluoromethyl)-[1,2,4]triazolo[4,3-b]pyridazin-6-yl)-3-(1H-pyrazol-1-yl)-5,6,7,8-tetrahydro-1,6-naphthyridine]"
83,169,"Cc1c(N2CCc3ncc(-c4ccnn4C)cc3C2)nn2c(C(F)(F)F)nnc2c1C [Compound 251, 6-(7,8-dimethyl-3-(trifluoromethyl)-[1,2,4]triazolo[4,3-b]pyridazin-6-yl)-3-(1-methyl-1H-pyrazol-5-yl)-5,6,7,8-tetrahydro-1,6-naphthyridine]"
80,140,"Cc1c(N2CCc3ncc(-c4ccns4)cc3C2)nn2c(C(F)(F)F)nnc2c1C [Compound 252, 5-(6-(7,8-dimethyl-3-(trifluoromethyl)-[1,2,4]triazolo[4,3-b]pyridazin-6-yl)-5,6,7,8-tetrahydro-1,6-naphthyridin-3-yl)isothiazole]"
42,1690,"Cc1c(N2CCc3ncc(-c4cnn(C5CCCCC5)c4)cc3C2)nn2c(C(F)(F)F)nnc2c1C [Compound 253, 3-(1-cyclohexyl-1H-pyrazol-4-yl)-6-(7,8-dimethyl-3-(trifluoromethyl)-[1,2,4]triazolo[4,3-b]pyridazin-6-yl)-5,6,7,8-tetrahydro-1,6-naphthyridine]"
76,494,"Cc1c(N2CCc3ncc(-c4ccn(C)n4)cc3C2)nn2c(C(F)(F)F)nnc2c1C [Compound 254, 6-(7,8-dimethyl-3-(trifluoromethyl)-[1,2,4]triazolo[4,3-b]pyridazin-6-yl)-3-(1-methyl-1H-pyrazol-3-yl)-5,6,7,8-tetrahydro-1,6-naphthyridine]"
62,602,"Cc1c(N2CCc3ncc(-c4ccc(C5CC5)nc4)cc3C2)nn2c(C(F)(F)F)nnc2c1C [Compound 255, 3-(6-cyclopropylpyridin-3-yl)-6-(7,8-dimethyl-3-(trifluoromethyl)-[1,2,4]triazolo[4,3-b]pyridazin-6-yl)-5,6,7,8-tetrahydro-1,6-naphthyridine]"
100,37,"Cc1c(N2CCc3ncc(N4CCCn5nccc54)cc3C2)nn2c(C(F)(F)F)nnc2c1C [Compound 267, 3-(6,7-dihydropyrazolo[1,5-a]pyrimidin-4(5H)-yl)-6-(7,8-dimethyl-3-(trifluoromethyl)-[1,2,4]triazolo[4,3-b]pyridazin-6-yl)-5,6,7,8-tetrahydro-1,6-naphthyridine]"
95,143,"Cc1c(N2CCc3ncc(C(F)(F)F)cc3C2)nn2c(Cl)nnc2c1C [Compound 268, 6-(3-Chloro-7,8-dimethyl-[1,2,4]triazolo[4,3-b]pyridazin-6-yl)-3-(trifluoromethyl)-7,8-dihydro-5H-1,6-naphthyridine]"
89,264,"Cc1c(N2CCc3ncc(N4CCOCC4)cc3C2)nn2c(C(F)(F)F)nnc2c1C [Compound 271, 4-(6-(7,8-dimethyl-3-(trifluoromethyl)-[1,2,4]triazolo[4,3-b]pyridazin-6-yl)-5,6,7,8-tetrahydro-1,6-naphthyridin-3-yl)morpholine]"
87,831,"Cc1c(N2CCc3ncc(NC4CCCC4)cc3C2)nn2c(C(F)(F)F)nnc2c1C [Compound 272, N-cyclopentyl-6-(7,8-dimethyl-3-(trifluoromethyl)-[1,2,4]triazolo[4,3-b]pyridazin-6-yl)-5,6,7,8-tetrahydro-1,6-naphthyridin-3-amine]"
